From patent publication US7875618B2, “Substituted imidazo[1,5-a]quinoxalines useful as inhibitors of phosphodiesterase 10 for the treatment of neurological and other disorders” (Wyeth, priority 2007, dated 2011) come the findings set out here.

For data set [1], the target named is PDE10 from pig striatum (Sus scrofa, UniProt A0A287B941). As to the kind of experiment: Inhibition of PDE10 from pig striatum ([3H]-cAMP SPA, Methods A and B). Type of data set: biochemical. Conditions: PDE10 pig. The procedure: Striatum from male Wistar rats (180-200 g), male hybrid pigs (150 kg) and male guinea pigs (CRL (HA), 500 g) respectively were collected and frozen at −70° C. At the day of preparation 0.5 g striatum was homogenised in 10 ml 50 mM Tris/Mg-buffer at 4° C. and centrifuged for one hour at 100000 g. The supernatant is called the cytosolic fraction and was removed and stored on ice. The pellet was resuspended in the same buffer, but containing 1% Triton and incubated for 45 min at 4° C. Both fractions were independently applied onto a 5 ml Hi Trap™ QHP column at the Äkta-FPLC. After washing the columns the bound PDE protein was eluted with an increasing sodium chloride gradient (0 mM-500 mM sodium chloride) in 50 mM Tris/Mg-buffer at 4° C. for the cytosolic fraction and in the presence of 1% Triton for the membrane fraction. […] The fractions with PDE10-activity were pooled and frozen in aliquots until use at −20° C. PDE10 activity was determined in a one step procedure in microtiter plates. […] Nonspecific activity was tested without the enzyme. The reaction was initiated by addition of the substrate solution and was carried out at 37° C. for 30 minutes. Enzymatic activity was stopped by addition of 25 μl YSi-SPA-beads (Amersham-Pharmacia). One hour later the mixture was measured in a liquid scintillation counter for microtiter plates (Microbeta Trilux). To pipette the incubation mixture a robot Biomek (Fa. Beckman) is used. […] For determination of IC50 values the Hill-plot, 2-parameter-model, was used. […] Striatum from male hybrid pigs (150 kg) were collected and frozen at −70° C. At the day of preparation 0.5 g striatum was homogenised in 10 ml 50 mM Tris/Mg-buffer at 4° C. and centrifuged for one hour at 100000 g. The supernatant was removed and the pellet was resuspended in the same buffer, but containing 1% Triton and incubated for 45 min at 4° C. The membrane fraction was applied onto a 5 ml Hi Trap™ QHP column at the Äkta-FPLC. After washing the column the bound PDE protein was eluted with an increasing sodium chloride gradient (0 mM-500 mM sodium chloride) in 50 mM Tris/Mg-buffer at 4° C. in the presence of 1% Triton. […] The fractions with PDE10-activity were pooled and frozen in aliquots until use at −20° C. PDE10 activity was determined in a one step procedure in microtiterplates. […] Nonspecific activity was tested without the enzyme. The reaction was initiated by addition of the substrate solution and was carried out at 37° C. for 30 minutes. Enzymatic activity was stopped by addition of 25 μl YSi-SPA-beads (Amersham-Pharmacia). One hour later the mixture was measured in a liquid scintillation counter for microtiterplates (Microbeta Trilux). To pipette the incubation mixture a robot Biomek (Fa. Beckman) is used. […] For determination of IC50 values the Hill-plot, 2-parameter-model, was used.

The target in data set [2] is T1, human recombinant PDE10A (Homo sapiens, UniProt Q9Y233).
T1 construct: made in house; host or cells: SF21 insect cells (baculovirus)
Put plainly: Inhibition of human recombinant PDE10A ([3H]-cAMP SPA, Method B). Type of data set: biochemical. Conditions: read-out: PDE10 inhibition IC50 [nM] PDE10A human. The procedure: The gene was than inserted into a baculovirus vector, ligated with the baculovirus DNA. The enzyme-protein was expressed in SF21-cells. The enzyme was isolated from these cells by harvesting the cells by a centrifugation at 200 g to collect the cells. The cells were resuspended in 50 mM Tris-HCl/5 mM MgCl2 buffer (pH=7.4) and lysed by a sonication of the cells. The cytosolic PDE10A was obtained by a centrifugation at 48000 g for 1 h in the supernatant and stored at −70° C. PDE10 activity was determined in a one step procedure in microtiterplates. […] Nonspecific activity was tested without the enzyme. The reaction was initiated by addition of the substrate solution and was carried out at 37° C. for 30 minutes. Enzymatic activity was stopped by addition of 25 μl YSi-SPA-beads (Amersham-Pharmacia). One hour later the mixture was measured in a liquid scintillation counter for microtiterplates (Microbeta Trilux). To pipette the incubation mixture a robot Biomek (Fa. Beckman) is used. […] For determination of IC50 values the Hill-plot, 2-parameter-model, was used.

T1 sequence (Q9Y233 1-779 isoform Q9Y233-1): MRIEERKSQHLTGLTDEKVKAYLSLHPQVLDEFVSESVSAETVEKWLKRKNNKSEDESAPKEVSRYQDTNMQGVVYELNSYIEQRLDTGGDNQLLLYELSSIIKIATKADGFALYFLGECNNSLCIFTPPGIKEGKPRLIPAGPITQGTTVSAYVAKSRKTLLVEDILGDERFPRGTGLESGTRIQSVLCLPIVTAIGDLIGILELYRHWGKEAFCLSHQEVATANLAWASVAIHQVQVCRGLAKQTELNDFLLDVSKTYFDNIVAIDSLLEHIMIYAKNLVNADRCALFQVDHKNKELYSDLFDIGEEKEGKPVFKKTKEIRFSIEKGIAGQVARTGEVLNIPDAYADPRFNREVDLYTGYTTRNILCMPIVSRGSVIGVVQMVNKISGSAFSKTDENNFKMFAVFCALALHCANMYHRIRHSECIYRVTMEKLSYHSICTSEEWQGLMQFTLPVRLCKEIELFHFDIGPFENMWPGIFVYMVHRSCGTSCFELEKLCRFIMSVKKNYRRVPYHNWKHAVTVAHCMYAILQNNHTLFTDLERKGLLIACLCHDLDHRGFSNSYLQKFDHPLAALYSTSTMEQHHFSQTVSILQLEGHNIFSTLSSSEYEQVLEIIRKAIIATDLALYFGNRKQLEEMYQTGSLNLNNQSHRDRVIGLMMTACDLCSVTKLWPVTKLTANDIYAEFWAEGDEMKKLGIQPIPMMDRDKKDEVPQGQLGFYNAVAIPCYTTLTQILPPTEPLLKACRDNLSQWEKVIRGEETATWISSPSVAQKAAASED

What is called IC50 is the point on the concentration scale where inhibition reaches its midpoint. For “7-Methoxy-3-methyl-1-propyl-imidazo[1,5-a]quinoxalin-4-ylamine [Example 41]”, the IC50 in data set [1] and in data set [2] was 10 to 100 nM throughout. A word on the melting point: it is the temperature, or range, at which the solid turns liquid. `CCc1nc(C)c2c(N)nc3ccccc3n12` [Example 3, 1-Ethyl-3-methyl-imidazo(1,5-a)quinoxalin-4-ylamine]: the melting point fell in the range of 192 to 195 °C. This compound showed an IC50 in data set [1] not below 100 nM. As to `CCCc1nc(C)c2c(N)nc3ccc(OC)cc3n12` [Example 7, 8-Methoxy-3-methyl-1-propyl-imidazo(1,5-a)quinoxalin-4-ylamine], the melting point fell in the range of 201 to 203 °C. The IC50 in data set [2] was in the range of 10 to 100 nM.

As for `Cc1nc(-c2ccccc2Cl)n2c1c(C)nc1ccc(F)cc12` [Example 15, 1-(2-Chlorphenyl)-3,4-dimethyl-8-fluoro-imidazo(1,5-a)quinoxaline], the IC50 in data set [1] is not above 10 nM; in data set [2] it was 10 to 100 nM.

Compound `CCCc1nc(C)c2c(C)nc3ccc(OC)cc3n12` [Example 16, 3,4-Dimethyl-8-methoxy-1-propyl-imidazo(1,5-a)quinoxaline] returned a melting point of 99 to 101 °C. For the same compound, the IC50 in data set [2] was in the range of 10 to 100 nM. For the compound `Cc1ccccc1-c1nc(C)c2c(C)nc3ccc(F)cc3n12` [Example 25, 8-Fluoro-3,4-dimethyl-1-(2-methylphenyl)imidazo[1,5-a]quinoxaline], the IC50 in data set [1] is not above 10 nM.

In data set [1], `Cc1cccc(-c2nc(C)c3c(C)nc4ccc(F)cc4n23)c1` [Example 26, 8-Fluoro-3,4-dimethyl-1-(3-methylphenyl)imidazo[1,5-a]quinoxaline] showed an IC50 of 10 to 100 nM. The same measure, in the same setting: as for `Cc1nc(-c2ccccc2C(F)(F)F)n2c1c(C)nc1ccc(F)cc12` [Example 27, 8-Fluoro-3,4-dimethyl-1-[2-(trifluoromethyl)phenyl]imidazo[1,5-a]quinoxaline], the figure is 10 to 100 nM. Take `Cc1nc(-c2ccccc2OC(F)(F)F)n2c1c(C)nc1ccc(F)cc12` [Example 28, 8-Fluoro-3,4-dimethyl-1-[2-(trifluoromethoxy)phenyl]imidazo[1,5-a]quinoxaline]: the results for the IC50 in data set [1] and in data set [2] were 10 to 100 nM and not below 100 nM, respectively.

For the compound `Cc1ccsc1-c1nc(C)c2c(C)nc3ccc(F)cc3n12` [Example 29, 8-Fluoro-3,4-dimethyl-1-(3-methyl-2-thienyl)imidazo[1,5-a]quinoxaline], the IC50 in data set [1] and in data set [2] was 10 to 100 nM throughout.

Take `Cc1noc(C)c1-c1nc(C)c2c(C)nc3ccc(F)cc3n12` [Example 30, 1-(3,5-Dimethylisoxazol-4-yl)-8-fluoro-3,4-dimethylimidazo[1,5-a]quinoxaline]: in data set [1], the IC50 was not below 100 nM.

The compound `COc1ccc2nc(N)c3c(C)nc(C4CCCCC4)n3c2c1` [Example 38, 1-Cyclohexyl-8-methoxy-3-methyl-imidazo[1,5-a]quinoxalin-4-ylamine] came in with a melting point of 211 to 212 °C. The IC50 in data set [2] was in the range of 10 to 100 nM. Consider `CCCc1nc(C)c2c(N)nc3ccc(OCC4CC4)cc3n12` [Example 39, 8-Cyclopropylmethoxy-3-methyl-1-propyl-imidazo[1,5-a]quinoxalin-4-ylamine], for which the melting point lay in the range of 163 to 167 °C. Besides, the IC50 in data set [2] lay within 10 to 100 nM. The like results for `COc1ccc2nc(C)c3c(C)nc(C4CCCCC4)n3c2c1` [Example 43, 1-Cyclohexyl-8-methoxy-3,4-dimethyl-imidazo[1,5-a]quinoxaline] were, in that order, 165 to 169 °C and 10 to 100 nM.

In turn, `CCCc1nc(C)c2c(C)nc3c(OCC(F)(F)F)cc(OCC(F)(F)F)cc3n12` [Example 46, 3,4-Dimethyl-1-propyl-6,8-bis-(2,2,2-trifluoro-ethoxy)-imidazo[1,5-a]quinoxaline] returned a melting point of 200 to 206 °C. Besides, the IC50 in data set [2] is not below 100 nM. `CCCc1nc(C)c2c(C)nc3cc(OC)ccc3n12` [Example 48, 7-Methoxy-3,4-dimethyl-1-propyl-imidazo[1,5-a]quinoxaline] returned a melting point of 111 to 117 °C. For the same compound, the IC50 in data set [2] is 10 to 100 nM.

For the compound `Cc1ccccc1-c1nc(C)c2c(C)nc3c(O)cc(O)cc3n12` [Example 54, 6,8-Dihydroxy-3,4-dimethyl-1-(2-methylphenyl)-imidazo[1,5-a]quinoxaline], the IC50 in data set [1] was not above 10 nM; in data set [2] it was 10 to 100 nM. For `Cc1nc(-c2ccccc2Cl)n2c1c(C)nc1cc(O)ccc12` [Example 55, 1-(2-Chlorophenyl)-3,4-dimethyl-7-hydroxy-imidazo(1,5-a)quinoxaline], in that order: 10 to 100 nM and 10 to 100 nM.

For `Cc1ccccc1-c1nc(C)c2c(C)nc3c(OC(F)F)cc(OC(F)F)cc3n12` [Example 56, 6,8-Bis-difluoromethoxy-3,4-dimethyl-1-(2-methylphenyl)-imidazo(1,5-a)quinoxaline], the IC50 in data set [1] and in data set [2] was not above 10 nM throughout. `Cc1nc(-c2ccccc2Cl)n2c1c(C)nc1cc(OCc3c(F)cccc3F)ccc12` [Example 57, 1-(2-Chloro-phenyl)-7-(2,6-difluorobenzyloxy)-3,4-dimethyl-imidazo(1,5-a)quinoxaline]: the figures for the IC50 in data set [1] and in data set [2] were not above 10 nM and 10 to 100 nM, respectively. For `Cc1nc(-c2ccccc2Cl)n2c1c(C)nc1cc(OCc3ccc4ccccc4n3)ccc12` [Example 58, 1-(2-Chloro-phenyl)-7-(quinolin-2-ylmethoxy)-3,4-dimethyl-imidazo(1,5-a)quinoxaline], in that order: not above 10 nM and not above 10 nM. The like results for `Cc1nc(-c2ccccc2Cl)n2c1c(C)nc1cc(OCc3cccc([N+](=O)[O-])c3)ccc12` [Example 59, 1-(2-Chloro-phenyl)-3,4-dimethyl-7-(3-nitrobenzyloxy)-imidazo(1,5-a)quinoxaline] were, in that order, not above 10 nM and 10 to 100 nM. `Cc1nc(-c2ccccc2Cl)n2c1c(C)nc1cc(OCc3cccc(N)c3)ccc12` [Example 60, 7-(3-Aminobenzyloxy)-1-(2-chlorophenyl)-3,4-dimethyl-imidazo(1,5-a)quinoxaline]: the results for the IC50 in data set [1] and in data set [2] were not above 10 nM and 10 to 100 nM, respectively. `CNC(=O)Nc1cccc(COc2ccc3c(c2)nc(C)c2c(C)nc(-c4ccccc4Cl)n23)c1` [Example 61, N-1-{3-[1-(2-Chlorophenyl)-3,4-dimethyl-imidazo(1,5-a)quinoxalin-7-yloxymethyl]-phenyl}-N′-methyl-urea]: the IC50 is not above 10 nM in data set [1] and 10 to 100 nM in data set [2].

`COc1cc(F)cc2c1nc(C)c1c(C)nc(-c3ccc(F)c(C(N)=O)c3)n12` [Example 86, 2-fluoro-5-(8-fluoro-6-methoxy-3,4-dimethylimidazo[1,5-a]quinoxalin-1-yl)benzamide] displayed a half-inhibitory concentration (IC50) in data set [1] not above 10 nM.

`CCc1nc(C)c2c(Cl)nc3ccc(N4CCCCC4)cc3n12` [Intermediate B2, 4-Chloro-1-ethyl-3-methyl-8-piperidin-1-yl-imidazo(1,5-a)quinoxaline] returned an IC50 in data set [1] of 10 to 100 nM. Compound `Cc1nc(-c2ccccc2Cl)n2c1c(Cl)nc1ccc(F)cc12` [Intermediate B8] returned an IC50 in data set [1] not above 10 nM.

In turn, `COc1ccc2nc(Cl)c3c(C)nc(C4CCCCC4)n3c2c1` [Intermediate B11] displayed a melting point of 212 to 215 °C. Turning to `Cc1nc(C2CCCCC2)n2c1c(Cl)nc1ccc(OCC3CC3)cc12` [Intermediate B13], the melting point is 165 to 168 °C. `CCCc1nc(C)c2c(Cl)nc3cc(OC)ccc3n12` [Intermediate B15] had a melting point of 154 to 159 °C.
